# Marks after values point to notes of the source that are not given here.
# Experiments:
# tumor-derived TTK = target: T1, tumor-derived TTK (Homo sapiens, UniProt P33981); experiment: Tumor TTK target occupancy in MDA-MB-231 xenograft-bearing mice; format: in vivo
# T1 construct: from tissue; host or cells: MDA-MB-231 xenograft tumours from mice
# T1 sequence (P33981 1-857): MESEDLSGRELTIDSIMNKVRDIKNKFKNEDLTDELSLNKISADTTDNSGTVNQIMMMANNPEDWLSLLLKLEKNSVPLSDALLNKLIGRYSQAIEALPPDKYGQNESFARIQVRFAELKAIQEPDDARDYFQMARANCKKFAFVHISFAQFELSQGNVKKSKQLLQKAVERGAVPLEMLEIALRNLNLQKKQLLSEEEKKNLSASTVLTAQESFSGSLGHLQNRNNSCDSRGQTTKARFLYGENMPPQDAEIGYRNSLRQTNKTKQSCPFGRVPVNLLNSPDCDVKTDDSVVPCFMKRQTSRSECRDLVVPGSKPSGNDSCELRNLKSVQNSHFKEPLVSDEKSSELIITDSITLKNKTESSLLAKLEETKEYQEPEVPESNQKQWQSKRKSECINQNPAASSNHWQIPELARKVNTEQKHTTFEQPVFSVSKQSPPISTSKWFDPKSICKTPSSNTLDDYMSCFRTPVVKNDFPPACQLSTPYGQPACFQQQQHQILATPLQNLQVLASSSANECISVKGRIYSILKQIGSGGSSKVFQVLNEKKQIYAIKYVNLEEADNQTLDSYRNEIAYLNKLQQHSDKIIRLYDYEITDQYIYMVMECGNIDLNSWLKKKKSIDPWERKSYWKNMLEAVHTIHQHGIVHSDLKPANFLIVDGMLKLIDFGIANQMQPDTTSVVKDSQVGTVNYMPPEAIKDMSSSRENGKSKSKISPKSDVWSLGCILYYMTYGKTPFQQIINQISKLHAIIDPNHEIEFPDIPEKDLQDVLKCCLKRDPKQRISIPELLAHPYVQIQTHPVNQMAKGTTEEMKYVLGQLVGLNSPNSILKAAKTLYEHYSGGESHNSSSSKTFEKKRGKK
# Description: Prolonged TTK target occupancy was also measured in tumors derived from MDAMB-231 xenograft-bearing mice treated with intermittent i.v. dosing regimen of compound of formula (I). […]
# PLK1 [1] = target: T2, PLK1 (Homo sapiens, UniProt P53350); experiment: Radiometric protein kinase assay (33PanQinase Activity Assay), PLK1; format: biochemical; details: radiometric 33PanQinase assay; ATP 1 mM
# T2 sequence (P53350 whole entry, the tested form may be a part): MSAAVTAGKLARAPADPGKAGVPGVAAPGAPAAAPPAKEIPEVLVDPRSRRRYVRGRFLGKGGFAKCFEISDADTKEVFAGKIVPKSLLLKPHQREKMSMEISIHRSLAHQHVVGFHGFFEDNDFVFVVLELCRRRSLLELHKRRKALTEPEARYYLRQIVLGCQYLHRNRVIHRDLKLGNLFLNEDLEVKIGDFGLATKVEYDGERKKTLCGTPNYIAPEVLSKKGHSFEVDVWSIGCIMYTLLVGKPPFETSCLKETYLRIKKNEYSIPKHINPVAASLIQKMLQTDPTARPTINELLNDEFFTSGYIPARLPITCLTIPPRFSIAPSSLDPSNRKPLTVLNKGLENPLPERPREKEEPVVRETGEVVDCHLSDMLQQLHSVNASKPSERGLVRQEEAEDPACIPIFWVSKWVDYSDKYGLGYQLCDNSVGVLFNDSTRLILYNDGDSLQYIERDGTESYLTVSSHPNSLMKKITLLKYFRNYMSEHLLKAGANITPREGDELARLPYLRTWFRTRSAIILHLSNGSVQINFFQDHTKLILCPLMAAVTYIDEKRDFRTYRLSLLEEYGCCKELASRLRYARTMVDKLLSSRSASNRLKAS
# Description: (§1) A radiometric protein kinase assay (33PanQinase® Activity Assay) was used for measuring the kinase activity of TTK and PLK1. TTK and PLK1 protein kinases were expressed as recombinant full-length GST-fusion proteins. The reaction cocktail contained […] of enzyme/substrate mixture. The assay for the protein kinases contained 70 mM HEPES-NaOH pH 7.5, 3 mM MgCl2, 3 mM MnCl2, 3 mM Na-orthovanadate, 1.2 mM DTT, […] PEG20000, ATP (0.3 mM for TTK and 1 mM for PLK1), [γ-33P]-ATP (approx. 8×10^5 cpm per well), protein kinase (15.8 nM for TTK and 5 nM for PLK1), and substrate (1 mg/50 mL for TTK and 2 mg/50 mL for PLK1). All assays were performed with a Beckman-Coulter/SAGIAN™ Core System. The fitting model for the IC50 determinations was “Sigmoidal response (variable slope)” with parameters “top” fixed at 100% and “bottom” at 0%. The fitting method used was a least squares fit.
# [2] = for Tolerability (Day 16) ΔBW (%) / Tolerability (Day 16) ΔT/C: mouse, in vivo
# Description: In a first PDX study female BALB/c nude mice (CrownBio) of at least 20 g body weight were subcutaneously (s.c.) inoculated in the right flank with tumor fragments (3*3*3 mm) from stock mice bearing the patient-derived xenograft (PDX) triple negative breast cancer (TNBC) tumor, BR1282. Randomization into 5 different treatment groups (8 mice per group) was made when the mean tumor size was 150-200 mm3. […] The fifth group received both vehicles using the time interval of 4 h and all groups were dosed twice via the tail vein. Dosing was delayed by 1 day in any mice showing transient body weight loss of ≥ 10% at any time point.
# (§2) Body weights and tumor volumes were determined at least twice per week, the latter by measuring two dimensions with calipers and applying the formula “V=(L×W2)/2”, where V is the tumor volume, and L and W are the tumor length and width respectively. […] Mice were also culled if the BWL was determined to be >15% for 3 consecutive days. Any mice with >10% BWL, automatically were dosed on one of the following days, as soon as the BWL returned to <10%. All animal protocols were reviewed and approved by the relevant local committees in China, where the studies were performed.
# [3] = Single-dose pharmacokinetic drug-drug interaction experiment; format: in vivo; details: 8 mg/kg i.v., 1 h after paclitaxel (15 mg/kg, i.v.); non tumor-bearing mice
# [4] = test system: triple negative breast cancer cell lines; experiment: 5-day anti-proliferative screen of 18 triple negative breast cancer cell lines; format: cell-based; details: 120 h, 18 different triple negative breast cancer cell lines, read-out: median GI50
# Source text: (§3) In cellular systems, the compound of formula (I) has high potency against sensitive cells.
# biotinylated PLK1 = target: T3, biotinylated PLK1 (Homo sapiens, UniProt P53350); experiment: Target residence time assay (Biacore T200 surface plasmon resonance), PLK1; format: binding; details: SPR, 22° C.
# T3 construct: biotin (biotinylated)
# T3 sequence (P53350 whole entry): as the sequence (P53350 whole entry, the tested form may be a part) above
# Description: (§4) The affinity, i.e. the equilibrium dissociation constant (KD) (referred to as residence times), of the compound of formula (I) against TTK and PLK1 were determined using a Biacore T200™ surface plasmon resonance instrument using recombinant expressed TTK kinase domain (amino acids 519-808) or biotinylated PLK1. The immobilization of TTK was performed as described in Maia et al. Annals of Oncology, 2015; 26:2180-2192. The immobilization of biotinylated PLK1 was performed as described in Willemsen-Seegers et al. Journal of Molecular Biology, 2017; 429:574-586. The subsequent single cycle kinetic assays were performed at 22° C. using a compound concentration gradient of 1, 3.6, 10, 31.6 and 100 nM for TTK and 10, 31.6, 100, 316 and 1000 nM for PLK1, a contact time of 100 s and a flow rate of […]. The dissociation period was 1200-1800 s and a correction for an unstable surface using a blank run with buffer was performed.
# PLK1 [5] = target: T2, PLK1; experiment: PLK1 kinase assay as described in WO 2015/155042; format: biochemical; details: when measured as described in WO 2015/155042
# [6] = test system: patient-derived xenograft (PDX) triple negative breast cancer (TNBC) tumor, BR1282; experiment: First PDX study, efficacy; format: in vivo, BALB/c nude mice; details: for Efficacy: ΔT/C Day 16: mean change in tumor volume on day 16; for Efficacy: ΔT/C Day −0 up to Day 42: mean rate of growth (k), exponential curve fits, day 0 to culling day or day 42; for Cures Day 97: no tumors detectable by H&E staining of skin on day 97, N=8 mice/group
# Description: (§5) The compound of formula (I) was supplied as a powder by Basilea Pharmaceutica International Ltd. and was prepared freshly as a solution in Ethanol: PEG400:Citric acid 20 mM, at a ratio of 1:1:8, for immediate administration.
# (§6) The statistical significance of efficacy were determined in two different ways using a) the endpoint on day 16 or day 13 depending on the study when it was necessary to cull the vehicle group because of tumor volume exceeding 1500 mm3, and b) at the endpoint of day 42 or day 51 depending on the study (one week after the final treatment) when exponential curve fits were applied to estimate the rates of tumor growth in the different groups. Finally, the number of complete cures was compared across the groups following confirmation by histopathology within the first study. The degree of an effect was quantified by the delta (Δ) treated/control ratio (ΔT/C) and the statistical significance of the effect was determined by a one-way analysis of variance (1W-ANOVA) with Holms-Sidak applied post-hoc for multiple determinations, where a p-value of <0.05 was considered statistically significant. In addition, an assessment of synergy was made based upon the Clarkes Combination Index (CCI), where the CCI=ΔT/CAB−(ΔT/CA*ΔT/CB) in which A and B are two different compounds, where CCI<−0.1 indicates synergy (or a positive interaction), +0.1 (antagonism, or a negative interaction) and between −0.1 and +0.1 indicates additivity (no interaction); see O'Reilly et al. Anti Cancer Drugs 2011; 22:58-78.
# TTK [7] = target: T4, TTK (Homo sapiens, UniProt P33981); experiment: Radiometric protein kinase assay (33PanQinase Activity Assay), TTK; format: biochemical; details: radiometric 33PanQinase assay; ATP 0.3 mM
# T4 construct: TTK and PLK1 protein kinases were expressed as recombinant full-length GST-fusion proteins; GST
# T4 sequence (P33981 1-857): T1 sequence (P33981 1-857)
# Description: as §1
# [8] = target: T5, TTK kinase domain (amino acids 519-808) (Homo sapiens, UniProt P33981); experiment: Target residence time assay (Biacore T200 surface plasmon resonance), TTK; format: binding; details: SPR, 22° C.
# T5 construct: recombinant expressed TTK kinase domain (amino acids 519-808)
# T5 sequence (P33981 519-808): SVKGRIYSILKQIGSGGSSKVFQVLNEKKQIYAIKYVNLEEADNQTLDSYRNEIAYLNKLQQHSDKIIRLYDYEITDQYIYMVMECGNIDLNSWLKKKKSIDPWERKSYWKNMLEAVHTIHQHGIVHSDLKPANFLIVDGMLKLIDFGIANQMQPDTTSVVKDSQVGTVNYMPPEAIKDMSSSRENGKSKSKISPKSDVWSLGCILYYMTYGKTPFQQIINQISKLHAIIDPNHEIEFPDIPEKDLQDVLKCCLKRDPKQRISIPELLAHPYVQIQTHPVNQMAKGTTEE
# Description: as §4
# other kinase = experiment: Kinase specificity, other kinases versus TTK; format: biochemical
# TNBC BR1282 PDX model = experiment: Second PDX study, efficacy; format: in vivo, BALB/c nude mice; details: for Efficacy: ΔT/C Day 13: mean change in tumor volume on day 13; for Efficacy: ΔT/C Day 0 up to day 51: mean rate of growth (k), day 0 to culling day or day 51; for Cures By day 148: no tumors detectable by pathological confirmation at end of observation period, 8 mice per group
# Description: as §5, §6
# TTK [9] = target: T4, TTK; experiment: TTK kinase assay as described in WO 2015/155042; format: biochemical; details: when measured as described in WO 2015/155042
# [10] = test system: patient-derived tumor xenografts, including TNBC and hepatocellular cancer (HCC) models; experiment: Patient-derived tumor xenografts in mice (data not shown); format: in vivo
# Source text: as §3
# [11] = mouse, in vivo
# Description: Dosing was delayed by 1 day in any mice showing transient body weight loss of ≥ 10% at any time point.
# as §2
SMILES,Tolerability (Day 16) ΔBW (%) [2] [%],Tolerability (Day 16) ΔT/C [2],Efficacy: ΔT/C Day 16 [6],Efficacy: ΔT/C Day −0 up to Day 42 [6],Cures Day 97 [6],Efficacy: ΔT/C Day 13 (TNBC BR1282 PDX model),Efficacy: ΔT/C Day 0 up to day 51 (TNBC BR1282 PDX model),Cures By day 148 (TNBC BR1282 PDX model),Tolerability (Day 13) ΔBW (%) [11] [%],Tolerability (Day 13) ΔT/C [11],other results
COc1cc(N2CCNCC2)ccc1Nc1ncc2c(n1)-n1ccc(C(=O)Nc3c(C)cccc3C)c1CC2 [Compound of formula (I)],−0.3 ± 1.4,1.01,0.45,0.28***,0/8,0.32,−0.02***,0/8,−1.9 ± 1.4,0.93,"time TTK completely occupied after last dose (tumor-derived TTK; i.v. twice-weekly, MTD dose): at least 72 h; time tumor-derived TTK fully drug-occupied after last administration (tumor-derived TTK; i.v. weekly MTD dosing): up to 6 days; IC50 (PLK1 [1]): 0.072 µM; mortality ([2]; day 21, considered non-drug-related): one mouse died; change in plasma AUC of the compound of formula (I) [3]: slight nonsignificant increase; GI50 [4]: 0.035 µM; target-residency on PLK1 (biotinylated PLK1): a few minutes; IC50 (PLK1 [5]): 0.046 µM; IC50 (TTK [7]): 0.007 µM; target-residency on TTK [8]: > 12 h; other kinase IC50s higher than those for TTK (other kinase): at least 10 fold; animals indicating regression (TNBC BR1282 PDX model; day 51): 3/8; IC50 (TTK [9]): 0.0004 µM; activity against patient-derived tumor xenografts [10]: significant activity"
"CC(=O)O[C@H]1C(=O)[C@@]2(C)[C@H]([C@H](OC(=O)c3ccccc3)[C@]3(O)C[C@H](OC(=O)[C@H](O)[C@@H](NC(=O)c4ccccc4)c4ccccc4)C(C)=C1C3(C)C)[C@]1(OC(C)=O)CO[C@@H]1C[C@@H]2O [Paclitaxel, reference compound]",−1.0 ± 1.2,1.00,0.24,0.41***,0/8,0.48,0.63***,0/8,4.9 ± 0.3,1.02,
